Laboratory results taken from patent US11690854B2, “Methods of treating heavy menstrual bleeding” (priority 2018, dated 2023).

Key:
[1] = Drug interaction studies: co-administered drug pharmacokinetics in the presence of elagolix; details: for Effect of co-administration of ELAGOLIX on concentration of concomitant drug (direction of the change in AUC): established drug interactions
Method: (§1) Drug interaction studies were performed with ELAGOLIX and other drugs that are likely to be co-administered and with drugs commonly used as probes for pharmacokinetic interactions.

[2] = for Drugs with no observed clinically significant interactions with ELAGOLIX: co-administration with ELAGOLIX
Method: as §1

[3] = Ethinyl estradiol 35 mcg and triphasic norgestimate 0.18/0.215/0.25 mg once daily, elagolix 150 ms once daily, N 21

**Q.** What does the source list for `C#C[C@]1(O)CC[C@H]2[C@@H]3CCc4cc(O)ccc4[C@H]3CC[C@@]21C` [Ethinyl Estradiol]?
**A.** Ratio of co-administered drug AUC, with elagolix vs medication alone [1, 3]: 1.30; Ratio of co-administered drug Cmax, with elagolix vs medication alone [1, 3]: 1.15

**Q.** With `C#CC1(O)CC[C@H]2[C@@H]3CCC4=CC(=O)CC[C@@H]4[C@H]3CC[C@@]21CC` (mixture of isomers) [Norgestrel] as the compound, how does the “Ratio of co-administered drug AUC, with elagolix vs medication alone” value (“Ratio of co-administered drug AUC” below) [1, 3] read?
**A.** The value was 0.92.

**Q.** And the “Ratio of co-administered drug Cmax, with elagolix vs medication alone” value (shortened to “Ratio of co-administered drug Cmax”) [1, 3]?
**A.** The value was 0.89.

**Q.** With `CC(C)c1nc(N(C)S(C)(=O)=O)nc(-c2ccc(F)cc2)c1/C=C/[C@@H](O)C[C@@H](O)CC(=O)O` [Rosuvastatin] as the compound, how does the “Ratio of co-administered drug AUC” value ([1]; Rosuvastatin 20 mg once daily, elagolix 300 mg twice daily × 7 days, N 10, 90% CI 0.50-0.71) read?
**A.** Its value is 0.60.

**Q.** What about the “Ratio of co-administered drug Cmax” value ([1]; Rosuvastatin 20 mg once daily, elagolix 300 mg twice daily × 7 days, N 10, 90% CI 0.73-1.35) of the same compound?
**A.** The value was 0.99.

**Q.** What about the “Effect of co-administration of ELAGOLIX on concentration of concomitant drug (direction of the change in AUC)” value [1] of the same compound?
**A.** Its value is “↓ rosuvastatin”.

**Q.** With `C#C[C@]1(O)CC[C@H]2[C@@H]3CCC4=CC(=NO)CC[C@@H]4[C@H]3CC[C@@]21CC` (mixture of isomers) [Norelgestromin] as the compound, how does the “Ratio of co-administered drug AUC” value [1, 3] read?
**A.** Its value is 0.85.

**Q.** And the “Ratio of co-administered drug Cmax” value [1, 3]?
**A.** Its value is 0.87.

**Q.** Which results are given for `C[C@H]1O[C@@H](O[C@H]2[C@@H](O)C[C@H](O[C@H]3[C@@H](O)C[C@H](O[C@H]4CC[C@@]5(C)[C@H](CC[C@@H]6[C@@H]5C[C@@H](O)[C@]5(C)[C@@H](C7=CC(=O)OC7)CC[C@]65O)C4)O[C@@H]3C)O[C@@H]2C)C[C@H](O)[C@@H]1O` [Digoxin]?
**A.** Ratio of co-administered drug AUC, with elagolix vs medication alone ([1]; Digoxin 0.5 mg single dose, elagolix 200 ms twice daily × 10 days, N 11, 90% CI 1.17-1.35): 1.26; Ratio of co-administered drug Cmax, with elagolix vs medication alone ([1]; Digoxin 0.5 mg single dose, elagolix 200 ms twice daily × 10 days, N 11, 90% CI 1.53-1.91): 1.71; Effect of co-administration of ELAGOLIX on concentration of concomitant drug (direction of the change in AUC) [1]: ↑ digoxin

**Q.** What does the source list for `Cc1ncc2n1-c1ccc(Cl)cc1C(c1ccccc1F)=NC2` [Midazolam]?
**A.** Ratio of co-administered drug AUC, with elagolix vs medication alone ([1]; Midazolam 2 mg single dose, elagolix 300 mg twice daily × 11 days, N 20, 90% CI 0.41-0.50): 0.46; Ratio of co-administered drug Cmax, with elagolix vs medication alone ([1]; Midazolam 2 mg single dose, elagolix 300 mg twice daily × 11 days, N 20, 90% CI 0.51-0 62): 0.56; Ratio of co-administered drug AUC, with elagolix vs medication alone ([1]; Midazolam 2 mg single dose, elagolix 150 ms once daily × 13 days, N 11, 90% CI 0.58-0.72): 0.65; Ratio of co-administered drug Cmax, with elagolix vs medication alone ([1]; Midazolam 2 mg single dose, elagolix 150 ms once daily × 13 days, N 11, 90% CI 0.74-0.89): 0.81; Effect of co-administration of ELAGOLIX on concentration of concomitant drug (direction of the change in AUC) [1]: ↓ midazolam

**Q.** With `CO[C@H]1/C=C/O[C@@]2(C)Oc3c(C)c(O)c4c(O)c(c(/C=N/N5CCN(C)CC5)c(O)c4c3C2=O)NC(=O)/C(C)=C\C=C\[C@H](C)[C@H](O)[C@@H](C)[C@@H](O)[C@@H](C)[C@H](OC(C)=O)[C@@H]1C` [Rifampin] as the compound, how does the “Effect of concomitant drug on elagolix (direction of the change in AUC)” value ([2]; established drug interactions) read?
**A.** Its value is “↑ elagolix”.

**Q.** Which “Drugs with no observed clinically significant interactions with ELAGOLIX” value [2] does the source give for `CC(=O)N1CCN(c2ccc(OCC3COC(Cn4ccnc4)(c4ccc(Cl)cc4Cl)O3)cc2)CC1` (centres unmarked) [Ketoconazole] here?
**A.** The value was “No dose adjustment is required”.

**Q.** For `CN[C@H]1CC[C@@H](c2ccc(Cl)c(Cl)c2)c2ccccc21` [sertraline], which “Drugs with no observed clinically significant interactions with ELAGOLIX” value [2] is on record?
**A.** Its value is “No dose adjustment is required”.
